Structures can show the parent of a compound that is named as a salt.

Holding throughout (assay type): biochemical
One test has as its target T1, human plasmin (Homo sapiens, UniProt P00747).
T1 construct: plasmin, the potent general protease produced by cleavage of plasminogen by either urokinase or tPA; purchased American Diagnostica
The test is described as follows: Plasmin Assay. The conditions noted are these: for PLM/uPA ratio: ratio with respect to urokinase indirect plasminogen-linked IC50, larger = greater specificity for urokinase; for IC50: read-out: PLASMIN IC50. As to the method: (v) A chromogenic pNA assay for plasmin, the potent general protease produced by cleavage of plasminogen by either urokinase or tPA. Although urokinase initiates cellular invasiveness by generating plasmin, the additional importance of plasmin in tPA-mediated fibrinolysis dictates that plasmin itself should be free from inhibition by urokinase inhibitors designed as anti-invasiveness agents. […] All other assay conditions, as well as methods of color quantitation, were carried out as described above for the urokinase direct assay.

The target in the next test is T2, human two-chain tPA (Homo sapiens, UniProt P00750).
T2 construct: human two-chain tPA was substituted for urokinase; purchased American Diagnostica
The test is described as follows: tPA Indirect (Plasminogen-Linked) Assay (tPA Direct Assay result where lower). The note with it: for tPA/UPA ratio: ratio with respect to urokinase indirect plasminogen-linked IC50, larger = greater specificity for urokinase; for IC50: tPA Indirect Plasminogen-Linked Assay, in rare cases direct assay result if lower, read-out: tPA IC50. From the text:
(iv) Both direct and plasminogen-linked pNA assays for tPA, the other mammalian plasminogen activator and the key initiator of blood clot dissolution or fibrinolysis. Since urokinase and tPA share an absolute specificity for the same peptide bond in plasminogen, urokinase inhibitors designed to block cellular invasiveness must be highly specific for urokinase over tPA in order to avoid serious thrombotic side effects secondary to undesired blockage of normal fibrinolysis. […] Spectrozyme tPA®, American Diagnostica) was substituted for urokinase substrate.

The next test addresses T3, urokinase (Homo sapiens, UniProt P00749).
T3 construct: human high molecular weight urokinase; purchased American Diagnostica, Greenwich, Conn
The test is described as follows: Urokinase Indirect (Plasminogen-Linked) Assay. The note with it: Table 3 column 4, simple number, unit inferred; read-out: uPA Indirect (plasminogen-linked) IC50.

For test [1], the target named is T4, human high molecular weight urokinase (Homo sapiens, UniProt P00749).
T4 construct: human high molecular weight urokinase; purchased American Diagnostica, Greenwich, Conn
Put plainly: Urokinase Direct Assay. The conditions noted are these: read-out: uPA Direct: percentage of residual urokinase activity relative to inhibitor-free controls; heading: uPA Direct: percentage of residual urokinase activity relative to inhibitor-free controls; inhibitor concentration of 1 mM. How it is done:
(i) A direct chromogenic assay in which urokinase cleaves a synthetic tripeptide p-nitroanilide (pNA) urokinase substrate.
Incubations were carried out at 37° C. for approximately 2 hours or until adequate yellow color developed. Color was quantitated by measuring absorbance at 405 nm (A405) using a Titertek Multiskan MCC/340 MK II microtiter plate spectrophotometer.

T2 sequence (P00750 311-562 limits assumed): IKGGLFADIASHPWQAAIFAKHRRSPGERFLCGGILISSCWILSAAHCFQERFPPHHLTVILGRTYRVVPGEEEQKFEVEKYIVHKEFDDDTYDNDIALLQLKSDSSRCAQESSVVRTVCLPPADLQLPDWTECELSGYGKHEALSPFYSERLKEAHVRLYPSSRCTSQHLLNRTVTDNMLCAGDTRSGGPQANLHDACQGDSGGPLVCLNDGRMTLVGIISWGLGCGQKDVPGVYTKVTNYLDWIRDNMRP
T2 sequence (P00750 36-310 limits assumed): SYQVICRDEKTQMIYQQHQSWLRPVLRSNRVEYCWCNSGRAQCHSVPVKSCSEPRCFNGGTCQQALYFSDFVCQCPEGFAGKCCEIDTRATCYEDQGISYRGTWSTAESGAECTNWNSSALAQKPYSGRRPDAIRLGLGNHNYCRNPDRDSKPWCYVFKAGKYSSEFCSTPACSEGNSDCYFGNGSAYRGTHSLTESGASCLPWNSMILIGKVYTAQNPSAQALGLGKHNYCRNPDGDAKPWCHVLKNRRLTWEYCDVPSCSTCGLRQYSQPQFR
T1 sequence (P00747 581-810 limits assumed): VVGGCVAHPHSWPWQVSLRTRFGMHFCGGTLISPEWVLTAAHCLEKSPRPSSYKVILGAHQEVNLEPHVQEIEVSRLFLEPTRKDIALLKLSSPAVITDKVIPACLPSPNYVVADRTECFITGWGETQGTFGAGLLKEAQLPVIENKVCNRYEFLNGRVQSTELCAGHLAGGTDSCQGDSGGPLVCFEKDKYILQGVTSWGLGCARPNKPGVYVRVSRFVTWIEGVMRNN
T1 sequence (P00747 97-580 limits assumed): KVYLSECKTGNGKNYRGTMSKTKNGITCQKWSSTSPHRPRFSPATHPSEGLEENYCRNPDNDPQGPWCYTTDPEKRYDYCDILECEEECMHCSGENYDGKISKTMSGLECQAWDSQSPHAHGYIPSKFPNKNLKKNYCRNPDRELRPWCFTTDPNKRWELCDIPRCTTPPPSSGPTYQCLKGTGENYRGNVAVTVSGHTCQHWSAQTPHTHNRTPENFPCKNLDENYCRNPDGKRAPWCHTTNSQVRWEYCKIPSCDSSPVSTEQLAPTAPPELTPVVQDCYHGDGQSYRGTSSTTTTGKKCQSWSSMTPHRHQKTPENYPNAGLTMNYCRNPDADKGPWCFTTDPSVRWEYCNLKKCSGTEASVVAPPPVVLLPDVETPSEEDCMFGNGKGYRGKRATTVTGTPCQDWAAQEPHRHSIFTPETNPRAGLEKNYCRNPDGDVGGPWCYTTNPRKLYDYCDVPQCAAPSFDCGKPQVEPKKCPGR

One may read the IC50 as the midpoint of a concentration-inhibition curve. `CCc1cccc2sc(C(=N)N)cc12.Cl` [Compound 7, 4-Ethylbenzo[b]thiophene-2-carboxamidine hydrochloride]: at human plasmin, the PLM/uPA ratio is 610 and the IC50 is 427 µM. On human two-chain tPA, the tPA/UPA ratio amounted to 263 and the IC50 was determined as 184 µM. For the same compound, the IC50 on urokinase was 0.7 µM.

Take `CCCc1cccc2sc(C(=N)N)cc12.Cl` [Compound 9, 4-Propylbenzo[b]thiophene-2-carboxamidine hydrochloride]: on human plasmin, the PLM/uPA ratio came to 902 and the IC50 amounted to 595 µM. For the same compound, at human two-chain tPA, the tPA/UPA ratio came to 250 and the IC50 stood at 165 µM. For the same compound, the IC50 on urokinase is 0.66 µM.

Turning to `CCCCc1cccc2sc(C(=N)N)cc12.Cl` [Compound 10, 4-Butylbenzo[b]thiophene-2-carboxamidine hydrochloride], on human plasmin, the PLM/uPA ratio is 907 and the IC50 was 381 µM. For the same compound, at human two-chain tPA, the tPA/UPA ratio turned out to be 352 and the IC50 worked out at 148 µM. The IC50 on urokinase was determined as 0.42 µM.

`CC(C)CCc1cccc2sc(C(=N)N)cc12.Cl` [Compound 12, 4-(3-Methylbutyl)benzo[b]thiophene-2-carboxamidine hydrochloride]: at human plasmin, the PLM/uPA ratio came out at 847. In addition, the IC50 at human plasmin amounted to 288 µM; on human two-chain tPA, 95 µM; on urokinase, 0.34 µM. Further, on human two-chain tPA, the tPA/UPA ratio stood at 279.

Take `CCCCCCc1cccc2sc(C(=N)N)cc12.Cl` [Compound 13, 4-(Hexyl)benzo[b]thiophene-2-carboxamidine hydrochloride]: on human plasmin, the PLM/uPA ratio stood at 464 and the IC50 came to 195 µM. Besides, at human two-chain tPA, the tPA/UPA ratio turned out to be 214 and the IC50 was 90 µM. On urokinase, the half-inhibitory concentration (IC50) came to 0.42 µM.

With `N=C(N)c1cc2cc(-c3cc4ccccc4s3)ccc2s1` [Compound 128, 5-(Benzo[b]thien-2-yl)benzo[b]thiophene-2-carboxamidine hydrochloride], on urokinase, the IC50 was 0.94 µM.

For `N=C(N)c1cc2cc(CO)ccc2s1` [Compound 131, 5-(Hydroxymethyl)benzo[b]thiophene-2-carboxamidine hydrochloride], the residual urokinase activity at 1000 µM in test [1] was 6.3%.

Regarding `Cc1ccc2sc(C(=N)N)cc2c1Br` [Compound 202, 4-Bromo-5-methylbenzo[b]thiophene-2-carboxamidine hydrochloride], the residual urokinase activity at 1000 µM in test [1] came to 3%.

For `N=C(N)c1cc2c(Cl)c(I)ccc2s1` [Compound 203, 4-Chloro-5-iodobenzo[b]thiophene-2-carboxamidine hydrochloride], in test [1], the residual urokinase activity at 1000 µM came out at 3.5%.

In the case of `N=C(N)c1cc2c(ccc3ccccc32)s1` [Compound 205, Naphtho[2,1-b]thiophene-2-carboxamidine hydrochloride], the residual urokinase activity at 1000 µM in test [1] is 0.27%.

Turning to `N=C(N)c1ccc(/C=C/c2cc3ccc4sc(C(=N)N)cc4c3s2)cc1` [Compound 209, 5-[E-2-(4-Carboxamidinophenyl)ethenyl]thieno[4,5-b]benzo[b]thiophene-2-carboxamidine bis-hydrochloride], the IC50 on urokinase was found to be 0.27 µM.

On to `N=C(N)c1cc2ccc(I)cc2s1` [Compound 301, 6-Iodobenzo[b]thiophene-2-carboxamidine hydrochloride], for which, in test [1], the residual urokinase activity at 1000 µM was found to be 13.7%.

Consider `N=C(N)c1cc2cccc(I)c2s1` [Compound 302, 7-Iodobenzo[b]thiophene-2-carboxamidine hydrochloride], for which, in test [1], the residual urokinase activity at 1000 µM came to 10.8%.

Take `Cc1ccc2cc(C(=N)N)sc2c1` [Compound 303, 6-Methylbenzo[b]thiophene-2-carboxamidine hydrochloride]: the residual urokinase activity at 1000 µM in test [1] came to 12%.

`Cc1c(C(=N)N)sc2ccccc12` [Compound 304, 3-Methylbenzo[b]thiophene-2-carboxamidine hydrochloride]: the residual urokinase activity at 1000 µM in test [1] turned out to be 75%.

For `N=C(N)c1sc2ccccc2c1O` [Compound 305, 3-Hydroxybenzo[b]thiophene-2-carboxamidine hydrochloride], the residual urokinase activity at 1000 µM in test [1] is > 90%.

`N=C(N)c1sc2ccccc2c1N` [Compound 306, 3-Aminobenzo[b]thiophene-2-carboxamidine hydrochloride]: the residual urokinase activity at 1000 µM in test [1] amounted to 41%.

As for `N=C(N)c1cc2c(F)cc(Br)cc2s1` [Compound 308, 4-Fluoro-6-bromobenzo[b]thiophene-2-carboxamidine hydrochloride], in test [1], the residual urokinase activity at 1000 µM is 14.5%.

In the case of `COc1ccc(Br)c2sc(C(=N)N)cc12` [Compound 309, 7-Bromo-4-methoxybenzo[b]thiophene-2-carboxamidine hydrochloride], the residual urokinase activity at 1000 µM in test [1] worked out at 18%.

As to `COc1ccc(F)c2cc(C(=N)N)sc12` [Compound 310, 4-Fluoro-7-methoxybenzo[b]thiophene-2-carboxamidine hydrochloride], the residual urokinase activity at 1000 µM in test [1] is > 90%.

Turning to `COc1c(Br)cc(Br)c2sc(C(=N)N)cc12` [Compound 311, 5,7-Dibromo-4-methoxybenzo[b]thiophene-2-carboxamidine hydrochloride], the residual urokinase activity at 1000 µM in test [1] worked out at 18%.

As for `N=C(N)c1cc2cc3ccccc3cc2s1` [Compound 313, Naphtho[2,3-b]thiophene-2-carboxamidine hydrochloride], the residual urokinase activity at 1000 µM in test [1] was 11%.

With `N=C(N)c1ccc2sccc2c1` [Compound 314, Benzo[b]thiophene-5-carboxamidine hydrochloride], the residual urokinase activity at 1000 µM in test [1] stood at 43%.

Turning to `N=C(N)c1ccc2ccsc2c1` [Compound 315, Benzo[b]thiophene-6-carboxamidine hydrochloride], the residual urokinase activity at 1000 µM in test [1] came to 21%.

For `N=C(N)c1csc2ccccc12` [Compound 316, Benzo[b]thiophene-3-carboxamidine hydrochloride], in test [1], the residual urokinase activity at 1000 µM is 80%.

As for `N=C(N)c1cccc2sccc12` [Compound 317, Benzo[b]thiophene-4-carboxamidine hydrochloride], the residual urokinase activity at 1000 µM in test [1] was 90%.

As to `N=C(N)c1cc2cccnc2s1` [Compound 318, Pyrido[2,3-b]thiophene-2-carboxamidine hydrochloride], the residual urokinase activity at 1000 µM in test [1] was determined as 55%.

For `N=C(N)Nc1cc2ccccc2s1` [Compound 319, 2-Guanidinobenzo[b]thiophene hydrochloride], the residual urokinase activity at 1000 µM in test [1] is > 90%.

For `N=C(N)NC(=O)c1cc2ccccc2s1` [Compound 320, N-Amidino benzo[b]thiophene-2-carboxamide hydrochloride], the residual urokinase activity at 1000 µM in test [1] came out at 84%.

Consider `Cl.N=C(N)c1cc2ccsc2s1` [Compound 321, Thieno[2,3-b]thiophene-2-carboxamidine hydrochloride], for which the inhibition at 1000 µM on human plasmin (1 mM inhibitor, read-out: PLASMIN activity observed relative to inhibitor-free controls) came to 88%; at human two-chain tPA (1 mM inhibitor, read-out: tPA activity observed relative to inhibitor-free controls) it was 74%. The PLM/uPA ratio at human plasmin is listed as ≥ 1000. Also, in test [1], the residual urokinase activity at 1000 µM was found to be 4.1%. Besides, the tPA/UPA ratio on human two-chain tPA is ≥ 500.

Turning to `N=C(N)c1cc2sccc2s1` [Compound 322, Thieno[3,2-b]thiophene-2-carboxamidine hydrochloride], in test [1], the residual urokinase activity at 1000 µM was 2.7%.

Consider `N=C(N)c1cc2cscc2s1` [Compound 323, Thieno[3,4-b]thiophene-2-carboxamidine hydrochloride], for which the residual urokinase activity at 1000 µM in test [1] worked out at 5.3%.

Values taken from US5340833A, “Urokinase inhibitors” (Eisai Co., Ltd., priority 1992, dated 1994).
